Test results reported in patent US10988477B2 (Merck Patent GmbH, priority 2018, dated 2021).
Where two headings read alike, the source gives them in different places.

Legend:
GCN2 kinase = GCN2 kinase (Homo sapiens, UniProt Q9P2K8); test: GCN2 enzyme inhibition assay (Transcreener ADP2 fluorescence polarization); format: biochemical; settings: 280 μM ATP
Procedure, shortened: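 Human GCN2 (4 nM) preincubated 10 min with compound (0–8 μM) and 200 μM (RS)7 peptide in Tris-HCl pH 7.5, NaCl, MgCl2, DTT. Reaction started with 280 μM ATP, run 1 h at 25 °C. ADP detected by Transcreener fluorescence polarization. IC50 and Ki(app) fitted by tight-binding algorithm.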

[1] = molecular target: intracellular GCN2 (phosphorylation of the GCN2 substrate eIF2α) (Homo sapiens, UniProt Q9P2K8); test: GCN2 cellular inhibition assay (AlphaScreen SureFire P-eIF2α Ser51, borrelidin-treated U2OS cells); format: cell-based
Description: Compounds can be screened for their ability to inhibit intracellular GCN2 using an AlphaScreen assay (Perkin Elmer) to detect phosphorylation of the GCN2 substrate eIF2α in borrelidin-treated cells. U2OS cells are plated at 5,000 cells per well in 384-well white polystyrene plates (Corning 3570) in McCoy's 5 A media (GIBCO 26600-023) supplemented with 10% foetal bovine serum (SAFC 12103C), Penicillin/Streptomycin solution diluted 1:100 (Sigma P0781), and 2 mM L-glutamine (Sigma G7513), and allowed to adhere overnight at 37° C. in 5% CO2. Compounds are then added to the cell media from a final concentration of 40 μM in 4-fold serial dilutions. Borrelidin (FluoroChem M01440) is immediately added to the wells to a final concentration of 10 μM and the cells are incubated for 1 h at 37° C. in 5% CO2. After 1 h of treatment with borrelidin, the media is removed, and the cells are lysed with lysis buffer (TGR BioSciences TGRLB) at ambient temperature.
An AlphaScreen SureFire P-eIF2α (Ser51) assay kit (Perkin Elmer TGREIF2S) was used to measure levels of eIF2α phosphorylated on Serine 51. Anti-phosphorylated eIF2α Ser51 antibody-linked acceptor beads (TGR BioScience 6760617) are added to the cell homogenate (diluted 1:250 into a mixture of activation (TGR BioScience TGRAB) and reaction buffer (TGR BioScience TGREIF2S) prepared immediately before use). The plate is then incubated for 2 h at ambient temperature in the dark. Anti-eIF2α antibody-linked donor beads (TGR BioScience 6760617) were then added (diluted 1:100 in dilution buffer (TGR BioScience TGRDB) prepared immediately before use). The plate is then incubated overnight at ambient temperature in the dark.
Plates are analyzed on an Alpha Technology-compatible PHERAstar FS plate reader (BMG Labtech Version 1.14) to quantify phosphorylated eIF2α Ser51 levels. The percentage inhibition of phosphorylated eIF2α is calculated by comparison to control wells stimulated with borrelidin alone.

[2] = compounds of Formula II, 4 nM GCN2 kinase
[3] = compounds of Formula II, biomarker assay, phosphorylated eIF2α Ser51 in borrelidin-treated U2OS cells
[4] = Enzyme activity for compounds of Formula IV, Ki(app), 25° C.
[5] = compounds of Formula IV, biomarker assay, phosphorylated eIF2α Ser51 in borrelidin-treated U2OS cells
[6] = compounds of Formula V, 4 nM GCN2 kinase
[7] = compounds of Formula V, U2OS cells, 10 μM borrelidin, 1 h, read-out: GCN2 Biomarker (IC50)

Chain of intracellular GCN2 (phosphorylation of the GCN2 substrate eIF2α) (Q9P2K8 whole entry): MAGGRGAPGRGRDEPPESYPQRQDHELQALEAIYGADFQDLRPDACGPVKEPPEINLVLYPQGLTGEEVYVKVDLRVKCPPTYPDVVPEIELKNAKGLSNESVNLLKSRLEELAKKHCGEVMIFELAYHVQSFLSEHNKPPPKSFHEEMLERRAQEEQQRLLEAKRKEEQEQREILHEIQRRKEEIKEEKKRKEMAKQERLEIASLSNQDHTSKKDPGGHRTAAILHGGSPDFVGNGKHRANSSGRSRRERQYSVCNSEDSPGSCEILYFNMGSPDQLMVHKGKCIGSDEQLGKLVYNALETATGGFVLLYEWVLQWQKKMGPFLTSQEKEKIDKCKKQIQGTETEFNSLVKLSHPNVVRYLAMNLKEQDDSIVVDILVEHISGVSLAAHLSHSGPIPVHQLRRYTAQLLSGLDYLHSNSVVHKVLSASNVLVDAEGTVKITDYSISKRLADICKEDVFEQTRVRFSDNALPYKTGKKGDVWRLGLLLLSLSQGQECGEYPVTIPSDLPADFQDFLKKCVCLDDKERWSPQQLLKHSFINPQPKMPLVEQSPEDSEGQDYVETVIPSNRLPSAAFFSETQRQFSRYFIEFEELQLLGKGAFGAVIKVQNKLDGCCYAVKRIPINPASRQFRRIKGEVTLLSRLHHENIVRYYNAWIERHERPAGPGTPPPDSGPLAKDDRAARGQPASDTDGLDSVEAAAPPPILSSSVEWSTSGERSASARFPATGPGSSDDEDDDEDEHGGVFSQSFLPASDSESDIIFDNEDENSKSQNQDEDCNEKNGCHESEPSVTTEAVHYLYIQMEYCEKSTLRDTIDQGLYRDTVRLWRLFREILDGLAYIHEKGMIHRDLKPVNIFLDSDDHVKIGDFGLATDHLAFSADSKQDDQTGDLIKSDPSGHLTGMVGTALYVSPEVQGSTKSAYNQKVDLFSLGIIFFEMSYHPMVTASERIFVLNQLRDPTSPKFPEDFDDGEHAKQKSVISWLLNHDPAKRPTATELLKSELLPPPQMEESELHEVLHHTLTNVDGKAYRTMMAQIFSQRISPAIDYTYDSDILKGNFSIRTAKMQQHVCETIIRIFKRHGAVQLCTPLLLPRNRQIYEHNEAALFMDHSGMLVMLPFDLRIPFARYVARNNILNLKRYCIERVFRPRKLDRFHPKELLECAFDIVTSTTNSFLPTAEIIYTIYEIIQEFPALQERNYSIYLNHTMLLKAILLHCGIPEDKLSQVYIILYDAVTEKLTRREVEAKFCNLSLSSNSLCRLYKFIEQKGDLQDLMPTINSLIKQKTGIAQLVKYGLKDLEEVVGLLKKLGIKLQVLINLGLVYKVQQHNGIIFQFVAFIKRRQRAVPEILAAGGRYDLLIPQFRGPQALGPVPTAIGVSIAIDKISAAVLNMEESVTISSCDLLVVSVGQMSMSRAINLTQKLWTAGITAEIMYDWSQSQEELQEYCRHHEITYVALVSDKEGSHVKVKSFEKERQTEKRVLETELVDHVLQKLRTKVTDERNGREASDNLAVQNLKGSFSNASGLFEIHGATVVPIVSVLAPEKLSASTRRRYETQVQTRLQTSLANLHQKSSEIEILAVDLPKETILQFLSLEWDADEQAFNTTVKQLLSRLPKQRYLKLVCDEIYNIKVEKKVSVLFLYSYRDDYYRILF
Chain of GCN2 kinase (Q9P2K8 whole entry): as above

Row | Ki (GCN2 kinase; [4]) [nM] | IC50 [1, 5] [nM] | SMILES | further results
1 |  |  | CC1CC(C(N)=O)C(C)N(c2cc(-c3cnc4ccc(C(F)(F)F)nn34)ncn2)C1 (racemic) [II-719, 2,5-Dimethyl-1-[6-[6-(trifluoromethyl)imidazo[1,2-b]pyridazin-3-yl]pyrimidin-4-yl]piperidine-3-carboxamide] | Ki (GCN2 kinase; [2]): 10 to 1000 nM; IC50 [1, 3]: 500 to 5000 nM
2 |  |  | CC1CC(C(N)=O)C(C)N(c2cc(-c3cnc4ccc(C(F)(F)F)nn34)ncn2)C1 (racemic) [II-720, 2,5-Dimethyl-1-[6-[6-(trifluoromethyl)imidazo[1,2-b]pyridazin-3-yl]pyrimidin-4-yl]piperidine-3-carboxamide] | Ki (GCN2 kinase; [2]): 10 to 1000 nM; IC50 [1, 3]: 500 to 5000 nM
3 | 10 to 100 | 500 to 5000 | C[C@@H]1CN(c2ccnc(-c3cnc4cnc(C(F)(F)F)cn34)n2)C[C@@H](c2cn[nH]c2)O1 (racemic) [IV-11, Trans-2-Methyl-6-(1H-pyrazol-4-yl)-4-(2-(6-(trifluoromethyl)imidazo[1,2-a]pyrazin-3-yl)pyrimidin-4-yl)morpholine] | 
4 | < 10 | < 500 | C[C@@H]1CN(c2ccnc(-c3cnc4cnc(C(F)(F)F)cn34)n2)C[C@H](c2cn[nH]c2)O1 (racemic) [IV-12, Cis-2-Methyl-6-(1H-pyrazol-4-yl)-4-(2-(6-(trifluoromethyl)imidazo[1,2-a]pyrazin-3-yl)pyrimidin-4-yl)morpholine] | 
5 | 10 to 100 | 500 to 5000 | C[C@@H]1CC[C@H](C(N)=O)CN1c1ccnc(-c2cnc3cnc(C(F)F)cn23)n1 (racemic) [IV-106, Cis-1-(2-(6-(Difluoromethyl)imidazo[1,2-a]pyrazin-3-yl)pyrimidin-4-yl)-6-methylpiperidine-3 carboxamide] | 
6 | 100 to 1000 | > 5000 | C[C@H]1[C@@H](C(=O)O)CCCN1c1ccnc(-c2cnc3cnc(C(F)F)cn23)n1 (racemic) [IV-110, Cis-1-(2-(6-(Difluoromethyl)imidazo[1,2-a]pyrazin-3-yl)pyrimidin-4-yl)-2-methylpiperidine-3-carboxylic acid] | 
7 | 10 to 100 | 500 to 5000 | C[C@@H]1CN(c2ccnc(-c3cnc4cnc(Cl)cn34)n2)C[C@H](c2cn[nH]c2)N1 (racemic) [IV-206, Cis-6-Chloro-3-(4-(3-methyl-5-(H-pyrazol-4-yl)piperazin-1-yl)pyrimidin-2-yl)imidazo[1,2-a]pyrazine] | 
8 | 10 to 100 | < 500 | C[C@H]1[C@@H](c2cn[nH]c2)OCCN1c1ccnc(-c2cnc3cnc(C(F)(F)F)cn23)n1 (racemic) [IV-215, Cis-3-Methyl-2-(1H-pyrazol-4-yl)-4-(2-(6-(trifluoromethyl)imidazo[1,2-a]pyrazin-3-yl)pyrimidin-4-yl)morpholine] | 
9 | < 10 | < 500 | C[C@@H]1[C@H](c2cn[nH]c2)OCCN1c1ccnc(-c2cnc3cnc(C#N)cn23)n1 (racemic) [IV-280, Cis-3-(4-(3-Methyl-2-(1H-pyrazol-4-yl)morpholino)pyrimidin-2-yl)imidazo[1,2-a]pyrazine-6-carbonitrile] | 
10 | < 10 | < 500 | C[C@H]1[C@@H](c2cn[nH]c2)NCCN1c1ccnc(-c2cnc3cnc(Br)cn23)n1 (racemic) [IV-343, Cis-6-Bromo-3-(4-(2-methyl-3-(1H-pyrazol-4-yl)piperazin-1-yl)pyrimidin-2-yl)imidazo[1,2-a]pyrazine] | 
11 | 10 to 100 | 500 to 5000 | C[C@@H]1CN(c2ccnc(-c3cnc4cnc(Br)cn34)n2)C[C@H](c2cn[nH]c2)N1 (racemic) [IV-344, Cis-6-Bromo-3-(4-(3-methyl-5-(1H-pyrazol-4-yl)piperazin-1-yl)pyrimidin-2-yl)imidazo[1,2-a]pyrazine] | 
12 | < 10 | 500 to 5000 | C[C@H]1CN(c2ccnc(-c3cnc4cnc(C(F)(F)F)cn34)n2)C[C@@H](c2c[nH]cn2)N1 (racemic) [IV-379, Cis-3-(4-(3-(1H-Imidazol-4-yl)-5-methylpiperazin-1-yl)pyrimidin-2-yl)-6-(trifluoromethyl)imidazo[1,2-a]pyrazine] | 
13 | 100 to 1000 | > 5000 | CS(C)(=O)=N[C@@H]1C[C@@H](c2cn[nH]c2)CN(c2ccnc(-c3cnc4cnc(C(F)(F)F)cn34)n2)C1 (racemic) [IV-394] | 
14 | 10 to 100 | 500 to 5000 | C[C@H]1[C@@H](c2cn[nH]c2)NCCN1c1ccnc(-c2cnc3cnc(C4CC4)cn23)n1 (racemic) [IV-411, Cis-6-Cyclopropyl-3-(4-(2-methyl-3-(1H-pyrazol-4-yl)piperazin-1-yl)pyrimidin-2-yl)imidazo[1,2-a]pyrazine] | 
15 | < 10 | < 500 | C[C@H]1[C@@H](c2cn[nH]c2)CCCN1c1ccnc(-c2cnc3cnc(Br)cn23)n1 (relative stereo) [IV-387, Cis-6-Bromo-3-(4-(2-methyl-3-(1H-pyrazol-4-yl)piperidin-1-yl)pyrimidin-2-yl)imidazo[1,2-a]pyrazine] | 
16 | 100 to 1000 | 500 to 5000 | CCN1CCN(c2ccnc(-c3cnc4cnc(Br)cn34)n2)[C@@H](c2cn[nH]c2)[C@H]1C (relative stereo) [IV-391, Cis-6-Bromo-3-(4-(4-ethyl-3-methyl-2-(1H-pyrazol-4-yl)piperazin-1-yl)pyrimidin-2-yl)imidazo[1,2-a]pyrazine] | 
17 | < 10 | < 500 | C[C@H]1[C@@H](c2cn[nH]c2)N(C)CCN1c1ccnc(-c2cnc3cnc(Br)cn23)n1 (relative stereo) [IV-392, Cis-6-Bromo-3-(4-(2,4-dimethyl-3-(1H-pyrazol-4-yl)piperazin-1-yl)pyrimidin-2-yl)imidazo[1,2-a]pyrazine] | 
18 |  |  | CC1CN(c2ccnc(-c3cnc4sc(C(F)(F)F)cn34)n2)C(C)C(c2cn[nH]c2)N1 (single isomer, unassigned) [Compound V-11, 5-[4-[2,5-Dimethyl-3-(1H-pyrazol-4-yl)piperazin-1-yl]pyrimidin-2-yl]-2-(trifluoromethyl)imidazo[2,1-b]thiazole] | Ki (GCN2 kinase; [6]): < 10 nM; IC50 [1, 7]: < 500 nM
19 |  |  | CC1CN(c2ccnc(-c3cnc4sc(C(F)(F)F)cn34)n2)C(C)C(c2cn[nH]c2)N1 (single isomer, unassigned) [Compound V-12, 5-[4-[2,5-Dimethyl-3-(1H-pyrazol-4-yl)piperazin-1-yl]pyrimidin-2-yl]-2-(trifluoromethyl)imidazo[2,1-b]thiazole] | Ki (GCN2 kinase; [6]): 100 to 1000 nM; IC50 [1, 7]: 500 to 5000 nM
20 |  |  | CS(=O)(=O)NCC1CN(c2cc(-c3cnc4ccc(C(F)F)nn34)ncn2)CCC1(F)F (single isomer, unassigned) [II-1, N-((1-(6-(6-(Difluoromethyl)imidazo[1,2-b]pyridazin-3-yl)pyrimidin-4-yl)-4,4-difluoropiperidin-3-yl)methyl)methanesulfonamide] | Ki (GCN2 kinase; [2]): 10 to 1000 nM; IC50 [1, 3]: 500 to 5000 nM
21 |  |  | CS(=O)(=O)NCC1CN(c2cc(-c3cnc4ccc(C(F)F)nn34)ncn2)CCC1(F)F (single isomer, unassigned) [II-2, N-((1-(6-(6-(Difluoromethyl)imidazo[1,2-b]pyridazin-3-yl)pyrimidin-4-yl)-4,4-difluoropiperidin-3-yl)methyl)methanesulfonamide] | Ki (GCN2 kinase; [2]): < 10 nM; IC50 [1, 3]: 500 to 5000 nM
22 |  |  | CC1(O)CC(CNS(C)(=O)=O)CN(c2cc(-c3cnc4ccc(C(F)F)nn34)ncn2)C1 (single isomer, unassigned) [II-5, N-((1-(6-(6-(Difluoromethyl)imidazo[1,2-b]pyridazin-3-yl)pyrimidin-4-yl)-5-hydroxy-5-methylpiperidin-3-yl)methyl)methanesulfonamide] | Ki (GCN2 kinase; [2]): 10 to 1000 nM; IC50 [1, 3]: > 5000 nM
